# Experiments:
# Type in all cases: in vivo, human
# males with ASD [1] = test: Expressive One Word Picture Vocabulary Test (EOWPVT), SAT-1 trial
# Procedure: Two observational examinations were performed by a clinician at 3 time points: baseline (56±8 days; mean±SEM; before the infusion), 2-days post-infusion, and 6-weeks post-infusion. The two examiner-based metrics were the Autism Diagnostic Observation Schedule, 2nd edition (ADOS-2) with video and audio files recorded on 3 cameras, and the Expressive One Word Picture Vocabulary Testing (EOWPVT). Both of these observational metrics were administered by a trained and certified examiner using approved test materials. Three standardized questionnaires were completed by parents at 3 time points: baseline, 7-days post-infusion, and 6-weeks post-infusion. The three standardized questionnaires completed by parents were the 58-question Aberrant Behavior Checklist (ABC), the 75-item Autism Treatment Evaluation Checklist (ATEC), and the 33-item repetitive behavior questionnaire (RBQ). Parents were asked to complete these three instruments with reference to how their child behaved in the previous 7 days. […]
# Behavioral and neurological effects of treatment were assessed primarily by the examiner-based ADOS-2 protocol scores and standardized vocabulary testing (Expressive One Word Picture Vocabulary Test, EOWPVT), with secondary evaluation via parent-based assessments (Aberrant Behavior Checklist (ABC) scores, Autism Treatment Evaluation Checklist (ATEC) scores, Clinical Global Impression of Improvement (CGI) scores, and Repetitive Behavior Questionnaire (RBQ) scores). […] Examiner-based outcomes (ADOS and EOWPVT) were assessed at 2-days and 6-weeks after the infusion. Parent-based outcomes (ABC, ATEC, CGI, and RBQ) were assessed at 7-days and 6-weeks after the infusion. […]
# Each child was used as their own control to examine before and after treatment effects from Example 1 in a paired t-test design for the analysis of the ADOS, EOWPVT, ABC, ATEC, RBQ (FIGS. 4-11 show individual analyses), and blood and urine safety data (FIGS. 2 and 3 show individual analyses). […] Categorical data, such as the presence or absence of adverse events or historical symptoms was analyzed by Fisher's exact test. […]
# males with ASD [2] = test: Autism Treatment Evaluation Checklist (ATEC), parent questionnaire, SAT-1 trial
# Procedure: (§1) Two observational examinations were performed by a clinician at 3 time points: baseline (56±8 days; mean±SEM; before the infusion), 2-days post-infusion, and 6-weeks post-infusion. The two examiner-based metrics were the Autism Diagnostic Observation Schedule, 2nd edition (ADOS-2) with video and audio files recorded on 3 cameras, and the Expressive One Word Picture Vocabulary Testing (EOWPVT). Both of these observational metrics were administered by a trained and certified examiner using approved test materials. Three standardized questionnaires were completed by parents at 3 time points: baseline, 7-days post-infusion, and 6-weeks post-infusion. The three standardized questionnaires completed by parents were the 58-question Aberrant Behavior Checklist (ABC), the 75-item Autism Treatment Evaluation Checklist (ATEC), and the 33-item repetitive behavior questionnaire (RBQ). Parents were asked to complete these three instruments with reference to how their child behaved in the previous 7 days. At the end of the six weeks, we included a 24-question Clinical Global Impression (CGI) questionnaire (FIG. 16). In addition, parents were asked to list the 3 top behaviors or symptoms that they observed to be most changed over the previous 6-weeks. To minimize the misinterpretation of natural day-to-day variations in symptoms, parents were asked to mark a symptom as changed in the 6-week CGI only if it had lasted for at least 1 week.
# (§2) For the test dose, 50 mg of suramin hexasodium (Bayer Pharmaceuticals, Inc.) in 5 mL of saline (experimental arm, 5 patients), or 5 mL of saline only (control arm, 5 patients) were given by slow intravenous (IV) push over 3 minutes, followed by a 10 mL flush of saline. One hour after the test dose, vital signs were repeated and a single infusion of either suramin (20 mg/kg, minus the 50 mg test dose, in 50 mL, up to a maximum of 1 gram) or saline (50 mL IV) was given over 30 minutes, followed by a 10 mL flush of saline.
# (§3) Behavioral and neurological effects of treatment were assessed primarily by the examiner-based ADOS-2 protocol scores and standardized vocabulary testing (Expressive One Word Picture Vocabulary Test, EOWPVT), with secondary evaluation via parent-based assessments (Aberrant Behavior Checklist (ABC) scores, Autism Treatment Evaluation Checklist (ATEC) scores, Clinical Global Impression of Improvement (CGI) scores, and Repetitive Behavior Questionnaire (RBQ) scores). See General Methods for information related to behavioral test administration. Prior to the study, diagnosis of each of the enrolled participants was confirmed by ADOS-2 comparison scores of ≥7, and non-verbal IQ was tested by Leiter-3 examination. Examiner-based outcomes (ADOS and EOWPVT) were assessed at 2-days and 6-weeks after the infusion. Parent-based outcomes (ABC, ATEC, CGI, and RBQ) were assessed at 7-days and 6-weeks after the infusion. To minimize the effects of natural behavioral variability, the parents were instructed to mark a behavior as changed only if it was persistently changed for at least 1 week.
# Each child was used as their own control to examine before and after treatment effects from Example 1 in a paired t-test design for the analysis of the ADOS, EOWPVT, ABC, ATEC, RBQ (FIGS. 4-11 show individual analyses), and blood and urine safety data (FIGS. 2 and 3 show individual analyses). Paired, non-parametric analysis was by Wilcoxon signed-rank sum test. Categorical data, such as the presence or absence of adverse events or historical symptoms was analyzed by Fisher's exact test. Two-way ANOVA (treatment×time), with Sidak post hoc correction, was used to analyze the 6-week summaries captured by the ADOS, CGI, and additional blood and urine safety analysis. Cohen's d—calculated as the mean difference of the paired, within-subject scores before and after treatment, divided by the standard deviation of the differences—was used as an estimate of effect size.
# males with ASD [3] = test: Clinical Global Impression (CGI) 24-question instrument, SAT-1 trial; conditions: for Difference from baseline (mean ± sd) / d (Cohen's d): 45 days after treatment
# Procedure: as §1
# We developed a 24-question Clinical Global Impression (CGI) instrument designed to assess the core symptoms of autism spectrum disorders and some of the most common comorbid features (FIG. 16). The CGI instrument scoring system was the traditional 7-point, CGI-Improvement scale. See, for e.g. Busner and Targum. Psychiatry. 2007(4):28-37. In this scale, the historian gives a score of 0 if the symptom “was never a problem”, a 1 for “very much improved”, a 4 for “no change”, and a 7 for “very much worse”. In addition to the 24 structured questions, we asked the parents to write in the top 3 symptoms or behaviors that were most changed over the 6 weeks since the suramin infusion. This hybrid design of structured and open-ended responses permitted us to capture a large number of clinical outcomes associated with single dose suramin treatment.
# as §2
# as §3, with “week. […]” for “week.”
# [4] = EOWPVT Vocabulary, 45 days after treatment
# [5] = ATEC Language, 7 days after treatment
# [6] = ATEC Language, 45 days after treatment
# [7] = ATEC Sociability, 7 days after treatment
# [8] = ATEC Total, 7 days after treatment
smiles,measurement,setting,value
"Cc1ccc(C(=O)Nc2ccc(S(=O)(=O)O)c3cc(S(=O)(=O)O)cc(S(=O)(=O)O)c23)cc1NC(=O)c1cccc(NC(=O)Nc2cccc(C(=O)Nc3cc(C(=O)Nc4ccc(S(=O)(=O)O)c5cc(S(=O)(=O)O)cc(S(=O)(=O)O)c45)ccc3C)c2)c1 [Suramin, suramin]",Difference from baseline (mean ± sd),males with ASD [1]; [4],−4.2 ± 8.3
same,d (Cohen's d),males with ASD [1]; [4],−0.51
same,EOWPVT scores,males with ASD [1]; after single 20 mg/kg IV dose,did not change
same,Difference from baseline (mean ± sd),males with ASD [2]; [5],−2.2 ± 1.5
same,d (Cohen's d),males with ASD [2]; [5],1.4
same,Difference from baseline (mean ± sd),males with ASD [2]; [6],−2.0 ± 1.4
same,d (Cohen's d),males with ASD [2]; [6],1.4
same,Difference from baseline (mean ± sd),males with ASD [2]; [7],−3.6 ± 2.6
same,d (Cohen's d),males with ASD [2]; [7],1.4
same,Difference from baseline (mean ± sd),males with ASD [2]; [8],−10 ± 7.7
same,d (Cohen's d),males with ASD [2]; [8],1.3
same,symptoms covered in the CGI that were significant,"males with ASD [3]; 6-weeks, 24 symptoms (FIG. 10C)",Four of 24
same,Difference from baseline (mean ± sd),males with ASD [3]; CGI E. Language (expressive language),−2.0 ± 1.04
same,d (Cohen's d),males with ASD [3]; CGI E. Language,1.9
same,Difference from baseline (mean ± sd),males with ASD [3]; CGI Overall ASD symptoms,−1.8 ± 1.04
same,d (Cohen's d),males with ASD [3]; CGI Overall ASD symptoms,1.7
same,Difference from baseline (mean ± sd),males with ASD [3]; CGI Social Inter. (social interaction),−2.0 ± 1.04
same,d (Cohen's d),males with ASD [3]; CGI Social Inter.,1.9

# Reference: US20190358181A1, “METHODS FOR AUTISM SPECTRUM DISORDER PHARMACOTHERAPY” (priority 2017, published 2019)
